From the NIST ThermoML archive (doi:10.1021/acs.jced.8b00070)
Numbers after ± are expanded uncertainties.

Assay: xn = mol fraction of the nth substance listed
Details: Liquid; for viscosity: 101 kPa, Oscillating disk viscometry; for mass density: 101.3 kPa, Vibrating tube method

CCCCn1cc[n+](C)c1.F[B-](F)(F)F [1-butyl-3-methylimidazolium tetrafluoroborate] + O
Details | mass density, x1 = 0.01 [kg/m3] | mass density, x1 = 0.0227 [kg/m3] | mass density, x1 = 0.0392 [kg/m3] | mass density, x1 = 0.0616 [kg/m3] | mass density, x1 = 0.0938 [kg/m3] | viscosity, x1 = 0.01 [mPa·s] | viscosity, x1 = 0.0227 [mPa·s] | viscosity, x1 = 0.0392 [mPa·s] | viscosity, x1 = 0.0616 [mPa·s] | viscosity, x1 = 0.0938 [mPa·s]
293.15 K | 1018.9 ± 2.1 | 1038.1 ± 2.1 | 1060.4 ± 2 | 1079.5 ± 2 | 1103.7 ± 2 | 1.07 ± 0.32 | 1.35 ± 0.41 | 1.84 ± 0.55 | 2.28 ± 0.69 | 3.04 ± 0.91
298.15 K | 1017.1 ± 2.1 | 1036 ± 2.1 | 1058 ± 2 | 1076.7 ± 2 | 1100.6 ± 2 | 0.95 ± 0.29 | 1.19 ± 0.36 | 1.6 ± 0.48 | 1.98 ± 0.6 | 2.69 ± 0.81
303.15 K | 1015.2 ± 2.1 | 1033.5 ± 2.1 | 1055.3 ± 2 | 1073.6 ± 2 | 1097.2 ± 2 | 0.84 ± 0.25 | 1.05 ± 0.32 | 1.4 ± 0.42 | 1.75 ± 0.53 | 2.34 ± 0.7
308.15 K | 1013.2 ± 2.1 | 1031.3 ± 2.1 | 1052.6 ± 2 | 1070.7 ± 2 | 1093.9 ± 2 | 0.76 ± 0.23 | 0.95 ± 0.29 | 1.25 ± 0.38 | 1.56 ± 0.47 | 2.06 ± 0.62
313.15 K | 1010.9 ± 2.1 | 1028.6 ± 2.1 | 1049.8 ± 2 | 1067.5 ± 2 | 1090.5 ± 2 | 0.69 ± 0.21 | 0.86 ± 0.26 | 1.13 ± 0.34 | 1.4 ± 0.42 | 1.84 ± 0.55
318.15 K | 1008.6 ± 2.1 | 1025.9 ± 2.1 | 1046.9 ± 2 | 1064.3 ± 2 | 1087.4 ± 2 | 0.64 ± 0.19 | 0.79 ± 0.24 | 1.02 ± 0.31 | 1.27 ± 0.38 | 1.66 ± 0.5
323.15 K | 1006.1 ± 2.1 | 1023.4 ± 2.1 | 1044 ± 2 | 1061.2 ± 2 | 1084.1 ± 2 | 0.59 ± 0.18 | 0.74 ± 0.22 | 0.94 ± 0.28 | 1.16 ± 0.35 | 1.48 ± 0.45
328.15 K | 1001.8 ± 2.1 | 1019.8 ± 2.1 | 1041.4 ± 2 | 1058.3 ± 2 | 1080.9 ± 2 | 0.55 ± 0.17 | 0.69 ± 0.21 | 0.88 ± 0.27 | 1.07 ± 0.32 | 1.31 ± 0.39
333.15 K | 999.2 ± 2.1 | 1017.6 ± 2.1 | 1040.6 ± 2.1 | 1057.4 ± 2 | 1079.9 ± 2 | 0.53 ± 0.16 | 0.62 ± 0.19 | 0.82 ± 0.25 | 0.99 ± 0.3 | 1.26 ± 0.38
